The values that follow come from patent publication US10806871B2, “Inhalable dry powders” (priority 2012, dated 2020).

Like-named read-outs stand apart in the source and are kept apart here.

The conditions of data set [1]: listing, cf. PCT Publication WO/2004/062643; cited from earlier work.
For data set [2] the following is noted: listing; cited from earlier work.
For data set [3] the following is noted: cited from earlier work.
The nature of data set [4]: Solubility of therapeutic agents in water or ethanol.

For the compound `COc1ccc(CCN2CCC(Nc3nc4ccccc4n3Cc3ccc(F)cc3)CC2)cc1` [Astemizol], the “Solubility In Water” value in data set [1] was “Insoluble”. The Bioavailability entry in data set [2] is given as “Low-moderate”.
As to `CC(=O)OC[C@H]1O[C@@H]([S-])[C@H](OC(C)=O)[C@@H](OC(C)=O)[C@@H]1OC(C)=O.CCP(CC)CC.[Au+]` [Auranofin], the “Solubility In Water” value in data set [1] is on record as “Slightly soluble”. For the same compound, in data set [2], the Bioavailability entry is recorded as “Low”.
Consider `OC(CCN1CCCCC1)(c1ccccc1)C1CC2C=CC1C2` (centres unmarked) [Biperiden], for which, in data set [1], the “Solubility In Water” value was “Sparingly soluble”. Also, in data set [2], the Bioavailability entry is reported as “Low”.
Take `CCCC1O[C@@H]2C[C@H]3[C@@H]4CCC5=CC(=O)C=C[C@]5(C)[C@H]4[C@@H](O)C[C@]3(C)[C@]2(C(=O)CO)O1` (some centres unmarked) [Budesonide]: the Bioavailability result in data set [2] was “Low”.
For the compound `COc1cc(N)c(Cl)cc1C(=O)NC1CCN(CCCOc2ccc(F)cc2)CC1OC` (centres unmarked) [Cisapride], the “Solubility In Water” value in data set [1] is reported as “Insoluble”. Further, the Bioavailability result in data set [2] is recorded as “Low”.
Take `CN1CCC[C@@H]1CCO[C@](C)(c1ccccc1)c1ccc(Cl)cc1` [Clemastine]: the “Solubility In Water” value in data set [1] is “Slightly soluble”. In addition, the Bioavailability result in data set [2] was “Low”.
With `CC1CC(OC(=O)C(O)c2ccccc2)CC(C)(C)C1` (centres unmarked) [Cyclandelate], in data set [1], the “Solubility In Water” value is listed as “Insoluble”. Besides, the Bioavailability result in data set [2] was “Low”.
`C#C[C@]1(O)CC[C@H]2[C@@H]3CCC4=Cc5oncc5C[C@]4(C)[C@H]3CC[C@@]21C` [Danazol]: the Bioavailability result in data set [2] is listed as “Low”.
With `CCCCCc1cc(O)c2c(c1)OC(C)(C)[C@@H]1CCC(C)=C[C@@H]21` [Dronabinol], in data set [1], the “Solubility In Water” value is “Insoluble”. Also, in data set [2], the Bioavailability result is reported as “Low”.
As to `NC(N)=Nc1nc(CSCCC(N)=NS(N)(=O)=O)cs1` [Famotidine], in data set [2], the Bioavailability entry was “Low”.
For `CCOC(=O)C1=C(C)NC(C)=C(C(=O)OC)C1c1cccc(Cl)c1Cl` (centres unmarked) [Felodipine], the “Solubility In Water” value in data set [1] is given as “Insoluble”. In addition, the Bioavailability entry in data set [2] is given as “Low”.
For `OCCN1CCN(CCCN2c3ccccc3Sc3ccc(C(F)(F)F)cc32)CC1` [Fluphenazine], in data set [1], the “Solubility In Water” value is given as “Insoluble”. Moreover, the Bioavailability result in data set [2] is “Low”.
With `O=[N+]([O-])O[C@H]1CO[C@H]2[C@@H]1OC[C@H]2O[N+](=O)[O-]` [Isosorbide dinitrate], in data set [2], the Bioavailability result was “Low”.
As for `COC(=O)C1=C(C)NC(C)=C(C(=O)OC(C)C)C1c1cccc2nonc12` (centres unmarked) [Isradipine], the “Solubility In Water” value in data set [1] is “Insoluble”. The Bioavailability entry in data set [2] is recorded as “Low”.
For `Cc1c(OCC(F)(F)F)ccnc1C[S+]([O-])c1nc2ccccc2[nH]1` (centres unmarked) [Lansoprazole], the “Solubility In Water” value in data set [1] is “Insoluble”.
Regarding `CC[C@H](C)C(=O)O[C@H]1C[C@@H](C)C=C2C=C[C@H](C)[C@H](CC[C@@H]3C[C@@H](O)CC(=O)O3)[C@H]21` [Lovastatin], in data set [1], the “Solubility In Water” value is given as “Insoluble”.
Take `Cc1cccc(Nc2ccccc2C(=O)O)c1C` [Mefenamic acid]: in data set [1], the “Solubility In Water” value is reported as “Slightly”.
On to `Nc1ccc(O)c(C(=O)O)c1` [Mesalamine], for which the Bioavailability entry in data set [2] was “Low”.
Consider `Cc1ncc2n1-c1ccc(Cl)cc1C(c1ccccc1F)=NC2` [Midazolam], for which the “Solubility In Water” value in data set [1] is recorded as “Insoluble”.
As for `C[C@@H]1C[C@H]2[C@@H]3CCC4=CC(=O)C=C[C@]4(C)[C@@]3(Cl)[C@@H](O)C[C@]2(C)[C@@]1(O)C(=O)CCl` [Mometasone], in data set [1], the “Solubility In Water” value was “Insoluble”.
`COc1ccc2cc(CCC(C)=O)ccc2c1` [Nabumetone]: the “Solubility In Water” value in data set [1] was “Insoluble”. In addition, the Bioavailability result in data set [2] was “Low”.
`CO[C@]12C[C@@H](COC(=O)c3cncc(Br)c3)CN(C)[C@@H]1Cc1cn(C)c3cccc2c13` [Nicergoline]: in data set [1], the “Solubility In Water” value is on record as “Insoluble”.
As to `CCn1cc(C(=O)O)c(=O)c2cc(F)c(N3CCNCC3)cc21` [Norfloxacin], the Bioavailability result in data set [2] is given as “Low”.
As for `COc1ccc2[nH]c([S+]([O-])Cc3ncc(C)c(OC)c3C)nc2c1` (centres unmarked) [Omeprazole], the “Solubility In Water” value in data set [1] is listed as “Slightly”.
For the compound `CC(=O)O[C@H]1C(=O)[C@@]2(C)[C@H]([C@H](OC(=O)c3ccccc3)[C@]3(O)C[C@H](OC(=O)[C@H](O)[C@@H](NC(=O)c4ccccc4)c4ccccc4)C(C)=C1C3(C)C)[C@]1(OC(C)=O)CO[C@@H]1C[C@@H]2O` [Paclitaxel], in data set [1], the “Solubility In Water” value is given as “Insoluble”.
`OCCN1CCN(CCCN2c3ccccc3Sc3ccc(Cl)cc32)CC1` [Perphenazine]: the Bioavailability result in data set [2] is listed as “Low”.
Regarding `O=C1NC(=O)C(c2ccccc2)(c2ccccc2)N1` [Phenytoin], the “Solubility In Water” value in data set [1] is listed as “Insoluble”.
Consider `CN1C(C(=O)Nc2ccccn2)=C(O)c2ccccc2S1(=O)=O` [Piroxicam], for which, in data set [1], the “Solubility In Water” value is listed as “Sparingly”.
On to `CCOC(=O)[C@H](CCc1ccccc1)N[C@@H](C)C(=O)N1[C@H](C(=O)O)C[C@@H]2CCC[C@@H]21` [Ramipril], for which, in data set [1], the “Solubility In Water” value was “Insoluble”.
Regarding `Cc1nc2n(c(=O)c1CCN1CCC(c3noc4cc(F)ccc34)CC1)CCCC2` [Risperidone], the “Solubility In Water” value in data set [1] was “Insoluble”.
Consider `CN[C@H]1CC[C@@H](c2ccc(Cl)c(Cl)c2)c2ccccc21` [Sertraline], for which the Bioavailability entry in data set [2] is recorded as “Low”.
Take `CC(=O)S[C@@H]1CC2=CC(=O)CC[C@]2(C)[C@H]2CC[C@@]3(C)[C@@H](CC[C@@]34CCC(=O)O4)[C@H]12` [Spironolactone]: the “Solubility In Water” value in data set [1] is recorded as “Insoluble”. Further, the Bioavailability result in data set [2] is on record as “Low”.
Consider `CN(C/C=C/C#CC(C)(C)C)Cc1cccc2ccccc12` [Terbinafine], for which, in data set [1], the “Solubility In Water” value was “Slightly”.
For the compound `CC(C)(C)c1ccc(C(O)CCCN2CCC(C(O)(c3ccccc3)c3ccccc3)CC2)cc1` (centres unmarked) [Terfenadine], in data set [1], the “Solubility In Water” value is listed as “Slightly”.
In the case of `C[C@]12CC[C@H]3[C@@H](CCC4=CC(=O)CC[C@@]43C)[C@@H]1CC[C@@H]2O` [Testosterone], in data set [1], the “Solubility In Water” value is reported as “Insoluble”. The Bioavailability entry in data set [2] is given as “Low”.
As to `Cc1ccc(-c2nc3ccc(C)cn3c2CC(=O)N(C)C)cc1` [Zolpidem], the “Solubility In Water” value in data set [1] is listed as “Sparingly”.
With `OC[C@@H](O)[C@@H](O)[C@H](O)[C@H](O)CO` [mannitol], the solubility in water result in data set [3] is reported as “about 182 g/L”.
Take `OCc1cc(C(O)CNCCCCCCOCCCCc2ccccc2)ccc1O` (centres unmarked) [salmeterol xinafoate]: in data set [4], the solubility in ethanol result is listed as “slightly soluble in ethanol” and the solubility in water entry is given as “practically insoluble in water”.
As for `OC[C@H]1O[C@H](O[C@H]2O[C@H](CO)[C@@H](O)[C@H](O)[C@H]2O)[C@H](O)[C@@H](O)[C@@H]1O` [trehalose], the solubility in data set [3] (at 20 C) was 68.9 g per 100 g of water.
